# Measurements reported in patent US11167007B2, “FOXM1 modulators and uses thereof” (City of Hope, priority 2016, dated 2021).
# Experiments:
# Format in all cases: cell-based, murine
# [1] = test system: AR; test: Androgen-responsive luciferase reporter assay in GT1-7 cells; settings: GT1-7 cells, treated overnight, FIG. 2A
# Protocol: Luciferase Reporter Assay. […] The following day, cells and drugs were distributed to 96-well plates. 24 hours later, luciferase activity was assessed by a dual luciferase assay kit (Promega) on the Tecan plate reader. Samples were run in quadruplicates and a Student's t test was performed to determine significance, where p<0.05 was considered significant.
# In order to identify potential cell-type selective AR modulators, the FRET-based assay of AR conformation change was utilized. AR signaling is a complex process involving many steps in addition to ligand binding. One crucial step is the ligand-induced conformational change of AR, which brings the carboxy (C)- and amino (N)-termini of the receptor together. Full length AR with cyan fluorescent protein (CFP) or yellow fluorescent protein (YFP) fused to either end (CARY) produces a FRET signal upon AR conformation change (FIG. 1A). This produces an accurate and quantifiable read-out of AR activity. […] Cells were plated in 96 wells and treated with library compounds 24 hours prior to accessing conformational changes by FRET. […] Candidate hits were then further evaluated by dose response. […] In addition to FRET, AR transcriptional activity was also assessed in several cell lines by transfecting cells with a luciferase reporter driven by the human PSA promoter.
# [2] = test system: AR; test: Androgen-responsive luciferase reporter assay in C2C12 cells; settings: treated overnight, FIG. 2A
# From the text: Luciferase Reporter Assay. Cells were transfected using Lipofectamine Plus (Invitrogen) with a normalization plasmid (pRL-SV40, Promega) and an androgen responsive plasmid (MMTV-luciferase or PSA-luciferase) as described in Jones et al, ACS Chem Biol, 3(7):412-8 (2008), and, where indicated, with an shRNA plasmid targeting FOXM1 (adapted for mouse FOXM1 sequence targeting) a scrambled control shRNA plasmid, or ARQ24 or ARQ65 plasmids. Christensen et al, PLoS One, 8(1):e54556 (2013). The following day, cells and drugs were distributed to 96-well plates. 24 hours later, luciferase activity was assessed by a dual luciferase assay kit (Promega) on the Tecan plate reader. Samples were run in quadruplicates and a Student's t test was performed to determine significance, where p<0.05 was considered significant.
# In order to identify potential cell-type selective AR modulators, the FRET-based assay of AR conformation change was utilized. AR signaling is a complex process involving many steps in addition to ligand binding. One crucial step is the ligand-induced conformational change of AR, which brings the carboxy (C)- and amino (N)-termini of the receptor together. Full length AR with cyan fluorescent protein (CFP) or yellow fluorescent protein (YFP) fused to either end (CARY) produces a FRET signal upon AR conformation change (FIG. 1A). This produces an accurate and quantifiable read-out of AR activity. Jones et al, ACS Chem Biol, 3(7):412-8 (2008). Because the interest was in the potential of neuron selective AR inhibitors for treatment of SBMA, the initial screen was carried out in CARY-transfected GT1-7 cells, which are a mouse model of hypothalamic neurons. Liposits et al, Endocrinology, 129(3):1575-83 (1991). Cells were plated in 96 wells and treated with library compounds 24 hours prior to accessing conformational changes by FRET. […] Candidate hits were then further evaluated by dose response. […] In addition to FRET, AR transcriptional activity was also assessed in several cell lines by transfecting cells with a luciferase reporter driven by the human PSA promoter. […]
# [3] = test system: FOXM1; test: Western blot of FOXM1 levels in GT1-7 CARY cells; settings: relative to p84 loading control, FIG. 3C
# From the text: Western Blot. Cell lysates was separated on a 6% SDS page gel and transferred to a nitrocellulose membrane. The membrane was blocked for one hour in 5% skim milk dissolved in TBS-T and probed with the following antibodies ([…]): FoxM1 (rabbit, GeneTex), AR: 441 (mouse, Santa Cruz Biotechnology), β-catenin (rabbit 9562, Cell Signaling Technology), p84 (mouse, GeneTex) and actin (mouse, Santa Cruz Biotechnology). Horse radish peroxidase linked secondary antibodies were used along with ECL reagents for visualization. Western blots were quantified using Quantity One analysis software (BioRad).
# It has been previously reported that thiostrepton causes decreased levels of FOXM1. Hegde et al, Nat Chem, 3(9):725-31 (2011); Gartel, Front Oncol, 3:150 (2013). […] The nuclear association between FOXM1 and β-catenin increases the transcriptional activity of both factors. Zhang et al, Cancer Cell, 20(4):427-42 (2011). β-catenin is a key AR coactivator in a variety of cells. Yang, J Biol Chem, 277(13):11336-44 (2002); Truica et al, Cancer Res, 60(17):4709-13 (2000). The inventors believed that thiostrepton could inhibit AR activity by limiting access to nuclear β-catenin via FOXM1 depletion. […] As expected, control actin protein was observed primarily in cytoplasmic fraction.
Structure (SMILES),inhibition of AR transcriptional activity (luciferase) [1],inhibition of AR transcriptional activity (luciferase) [2],FOXM1 levels (Western blot) [3]
Nc1c(C(=O)Nc2ccc(F)cc2)sc2nc(-c3cccs3)cc(C(F)(F)F)c12 [FDI-6],inhibited AR activity,not C2C12 cells,
"C[C@]12CCC(=O)C[C@@H]1CC[C@@H]1[C@@H]2CC[C@]2(C)[C@@H](O)CC[C@@H]12 [DHT, dihydrotestosterone]",,,increased
